Source: ChEMBL document CHEMBL1152655, “Novel acenaphtho[1,2-b]pyrrole-carboxylic acid family: synthesis, cytotoxicity, DNA-binding and cell cycle evaluation” (Bioorg Med Chem, 2009)
Active and inactive are the calls of the source. The calls are words filed in the database; no cut-off is given here.

Experiments:
HCT-8 = experiment: Cytotoxicity against human HCT8 cells after 48 hrs by MTT assay; format: functional, cell-based; conditions: HCT-8, 48 h
HeLa [1] = experiment: Cytotoxicity against human HeLa cells after 48 hrs by MTT assay; format: functional, cell-based
A-375 = experiment: Cytotoxicity against human A375 cells after 48 hrs by MTT assay; format: functional, cell-based; conditions: A-375, 48 h
HL-60 = experiment: Cytotoxicity against human HL60 cells after 48 hrs by MTT assay; format: functional, cell-based; conditions: HL-60, 48 h
Calf thymus DNA [2] = experiment: Binding affinity to calf thymus DNA; format: nucleic-acid assay; conditions: Bos taurus
MCF7 = experiment: Cytotoxicity against human MCF7 cells after 48 hrs by MTT assay; format: functional, cell-based; conditions: MCF7, 48 h
HeLa [3] = experiment: Cell cycle arrest in human HeLa cells by accumulation at G1 phase at 21.08 uM by flow cytometry (Rvb=58.94%); format: functional
Calf thymus DNA [4] = experiment: Binding affinity to calf thymus DNA assessed as DNA intercalation at 30 uM by UV-Vis absorption studies; format: nucleic-acid assay; conditions: Bos taurus
HeLa [5] = experiment: Cell cycle arrest in human HeLa cells by accumulation at S phase at 21.08 uM by flow cytometry (Rvb=28.20%); format: functional
HeLa [6] = experiment: Cell cycle arrest in human HeLa cells assessed as apoptotic cells at 21.08 uM by flow cytometry relative to control; format: functional
HeLa [7] = experiment: Cell cycle arrest in human HeLa cells by accumulation at G2 phase at 21.08 uM by flow cytometry (Rvb=12.86%); format: functional
HeLa [8] = experiment: Cell cycle arrest in human HeLa cells by accumulation at G2 phase at 12.05 uM by flow cytometry (Rvb=12.86%); format: functional
Calf thymus DNA [9] = experiment: Binding affinity to calf thymus DNA assessed as increase in solution viscosity by viscometric titration; format: nucleic-acid assay; conditions: Bos taurus
HeLa [10] = experiment: Cell cycle arrest in human HeLa cells by accumulation at G1 phase at 3.01 uM by flow cytometry (Rvb=58.94%); format: functional
HeLa [11] = experiment: Cell cycle arrest in human HeLa cells by accumulation at S phase at 3.01 uM by flow cytometry (Rvb=28.20%); format: functional
Calf thymus DNA [12] = experiment: Binding affinity to calf thymus DNA assessed as conformational change at 10 uM by CD spectra; format: nucleic-acid assay; conditions: Bos taurus
HeLa [13] = experiment: Cell cycle arrest in human HeLa cells by accumulation at G2 phase at 3.01 uM by flow cytometry (Rvb=12.86%); format: functional
HeLa [14] = experiment: Cell cycle arrest in human HeLa cells assessed as apoptotic cells at 12.05 uM by flow cytometry relative to control; format: functional
HeLa [15] = experiment: Cell cycle arrest in human HeLa cells assessed as apoptotic cells at 3.01 uM by flow cytometry relative to control; format: functional
HeLa [16] = experiment: Cell cycle arrest in human HeLa cells by accumulation at S phase at 12.05 uM by flow cytometry (Rvb=28.20%); format: functional
HeLa [17] = experiment: Cell cycle arrest in human HeLa cells by accumulation at G1 phase at 12.05 uM by flow cytometry (Rvb=58.94%); format: functional
HeLa [18] = experiment: Cell cycle arrest in human HeLa cells by accumulation at S phase at 11.46 uM by flow cytometry (Rvb=28.20%); format: functional
HeLa [19] = experiment: Cell cycle arrest in human HeLa cells by accumulation at G2 phase at 28.65 uM by flow cytometry (Rvb=12.86%); format: functional
HeLa [20] = experiment: Cell cycle arrest in human HeLa cells assessed as apoptotic cells at 20.06 uM by flow cytometry relative to control; format: functional
HeLa [21] = experiment: Cell cycle arrest in human HeLa cells by accumulation at G2 phase at 20.06 uM by flow cytometry (Rvb=12.86%); format: functional
HeLa [22] = experiment: Cell cycle arrest in human HeLa cells by accumulation at S phase at 20.06 uM by flow cytometry (Rvb=28.20%); format: functional
HeLa [23] = experiment: Cell cycle arrest in human HeLa cells by accumulation at G1 phase at 20.06 uM by flow cytometry (Rvb=58.94%); format: functional
HeLa [24] = experiment: Cell cycle arrest in human HeLa cells by accumulation at G2 phase at 11.46 uM by flow cytometry (Rvb=12.86%); format: functional
HeLa [25] = experiment: Cell cycle arrest in human HeLa cells by accumulation at G1 phase at 28.65 uM by flow cytometry (Rvb=58.94%); format: functional
HeLa [26] = experiment: Cell cycle arrest in human HeLa cells assessed as apoptotic cells at 28.65 uM by flow cytometry relative to control; format: functional
HeLa [27] = experiment: Cell cycle arrest in human HeLa cells by accumulation at S phase at 28.65 uM by flow cytometry (Rvb=28.20%); format: functional
HeLa [28] = experiment: Cell cycle arrest in human HeLa cells assessed as apoptotic cells at 11.46 uM by flow cytometry relative to control; format: functional
HeLa [29] = experiment: Cell cycle arrest in human HeLa cells by accumulation at G1 phase at 11.46 uM by flow cytometry (Rvb=58.94%); format: functional

| Structure (SMILES) | K (Calf thymus DNA [2]) [×10⁵ /M] | IC50 (HCT-8) [µM] | IC50 (HeLa [1]) [µM] | IC50 (A-375) [µM] | IC50 (HL-60) [µM] | IC50 (MCF7) [µM] | also measured |
| --- | --- | --- | --- | --- | --- | --- | --- |
| N#CC1=C2C(=NC1=O)c1cccc3c(N4CCSCC4)ccc2c13 |  | 25.8 | 15.7 | 48.7 | 28.6 | 41.2 |  |
| COC(=O)C1=C2C(=NC1=O)c1cccc3c(N4CCSCC4)ccc2c13 |  | > 100 | 26.9 | > 100 | > 100 | 68 |  |
| O=C(O)C1=C2C(=NC1=O)c1cccc3c(NCc4cccs4)ccc2c13 | 6.75 | > 100 | 84.3 | > 100 | 90 | > 100 |  |
| O=C(O)C1=C2C(=NC1=O)c1cccc3c(N4CCSCC4)ccc2c13 | 2.69 | > 100 | 48.9 | > 100 | 76.9 | > 100 |  |
| O=C(O)C1=C2C(=NC1=O)c1cccc3c(N4CCOCC4)ccc2c13 | 2.34 | > 100 | 36.2 | 79.4 | 42.2 | 18 |  |
| CN1CCN(c2ccc3c4c(cccc24)C2=NC(=O)C(C(=O)O)=C23)CC1 | 6.13 | 72.1 | 17.2 | 28.5 | 51 | 14.9 |  |
| O=C(O)C1=C2C(=NC1=O)c1cccc3c(N4CCCCC4)ccc2c13 | 2.91 | 24.4 | 20.6 | 18.4 | 20.5 | 14.5 | Activity (HeLa [3]): 53.67%; Activity (Calf thymus DNA [4]): Active; Activity (HeLa [5]): 33.58%; Activity (HeLa [6]): 11.95%; Activity (HeLa [7]): 12.75%; Activity (HeLa [8]): 9.46%; Activity (Calf thymus DNA [9]): Dose-dependent effect; Activity (HeLa [10]): 64.63%; Activity (HeLa [11]): 31.63%; Activity (Calf thymus DNA [12]): Active; Activity (HeLa [13]): 3.75%; Activity (HeLa [14]): 4.81%; Activity (HeLa [15]): 4.34%; Activity (HeLa [16]): 30.52%; Activity (HeLa [17]): 60.02% |

The next lines start with results.

| K (Calf thymus DNA [2]) [×10⁵ /M] | Structure (SMILES) | IC50 (HCT-8) [µM] | IC50 (HeLa [1]) [µM] | IC50 (A-375) [µM] | IC50 (HL-60) [µM] | IC50 (MCF7) [µM] | also measured |
| --- | --- | --- | --- | --- | --- | --- | --- |
| 4.73 | CCCCNc1ccc2c3c(cccc13)C1=NC(=O)C(C(=O)O)=C12 | 48.1 | 30.3 | 50.1 | 24.1 | > 100 |  |
| 5.96 | CN(C)CCNc1ccc2c3c(cccc13)C1=NC(=O)C(C(=O)O)=C12 | > 100 | 89.7 | > 100 | 47.9 | 97 |  |
| 6.01 | CN(C)CCCNc1ccc2c3c(cccc13)C1=NC(=O)C(C(=O)O)=C12 | > 100 | 29.3 | > 100 | 13.1 | 70.5 | Activity (HeLa [18]): 35.96%; Activity (HeLa [19]): 17.49%; Activity (Calf thymus DNA [4]): Active; Activity (HeLa [20]): 11.13%; Activity (HeLa [21]): 18.6%; Activity (HeLa [22]): 45.43%; Activity (HeLa [23]): 35.97%; Activity (HeLa [24]): 13.17%; Activity (Calf thymus DNA [9]): Dose-dependent effect; Activity (HeLa [25]): 34.1%; Activity (Calf thymus DNA [12]): Active; Activity (HeLa [26]): 13.89%; Activity (HeLa [27]): 48.41%; Activity (HeLa [28]): 5.22%; Activity (HeLa [29]): 50.87% |
| 5.48 | CCN(CC)CCNc1ccc2c3c(cccc13)C1=NC(=O)C(C(=O)O)=C12 | 38.1 | 10.4 | 71.8 | 19.8 | 16.5 |  |
